Measurements: patent publication US8367655B2, “Pyridoindolobenzox—and thiazepine derivatives and uses thereof” (Daya Drug Discoveries, Inc., priority 2009, dated 2013)

Columns and labels:
5-HT2A receptor = 5-HT2A receptor (Homo sapiens, UniProt P28223); test: Serotonin and dopamine receptor binding: 5-HT2A
5-HT2C receptor = target: T1, 5-HT2C receptor (Homo sapiens, UniProt P28335); test: Serotonin and dopamine receptor binding: 5-HT2C
T1 sequence (P28335 33-458): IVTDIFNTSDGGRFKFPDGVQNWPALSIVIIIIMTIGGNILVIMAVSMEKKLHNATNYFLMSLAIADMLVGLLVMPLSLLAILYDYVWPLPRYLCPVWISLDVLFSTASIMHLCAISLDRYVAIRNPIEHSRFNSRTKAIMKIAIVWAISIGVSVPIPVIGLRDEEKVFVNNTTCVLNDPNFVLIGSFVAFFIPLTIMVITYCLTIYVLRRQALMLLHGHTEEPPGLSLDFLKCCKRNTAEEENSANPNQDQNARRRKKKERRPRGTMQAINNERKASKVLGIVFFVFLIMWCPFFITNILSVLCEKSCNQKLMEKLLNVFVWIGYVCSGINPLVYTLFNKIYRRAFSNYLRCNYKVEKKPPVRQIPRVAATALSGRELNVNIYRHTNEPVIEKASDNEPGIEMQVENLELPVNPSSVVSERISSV

D2 receptor = D2 receptor (Homo sapiens, UniProt P14416); test: Serotonin and dopamine receptor binding: D2
Sequence of D2 receptor (P14416 whole entry): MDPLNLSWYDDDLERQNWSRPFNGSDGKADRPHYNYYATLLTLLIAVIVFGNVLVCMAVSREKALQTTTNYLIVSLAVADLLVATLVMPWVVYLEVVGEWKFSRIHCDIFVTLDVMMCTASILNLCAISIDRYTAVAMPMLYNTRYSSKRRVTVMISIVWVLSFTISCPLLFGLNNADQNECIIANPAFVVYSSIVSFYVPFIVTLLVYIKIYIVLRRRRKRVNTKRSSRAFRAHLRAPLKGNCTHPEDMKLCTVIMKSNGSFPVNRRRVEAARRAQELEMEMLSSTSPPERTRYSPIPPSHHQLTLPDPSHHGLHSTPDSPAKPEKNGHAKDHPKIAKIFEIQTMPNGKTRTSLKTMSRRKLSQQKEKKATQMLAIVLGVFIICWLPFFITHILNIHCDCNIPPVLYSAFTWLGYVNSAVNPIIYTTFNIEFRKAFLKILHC

rats [1] = test: Pilot dose-selection study (catalepsy, locomotion); type: in vivo
rats [2] = test: Amphetamine-induced motor activity; type: in vivo
Protocol: Effects of compound 2 on amphetamine-induced motor activity (FIG. 4 Graph). All rats were habituated to the motor box for 30 min followed by injection of compound 2 or vehicle. After 30 min all rats were injected with 1 mg/kg, i.p. amphetamine (a dose that is known to elevate locomotion in rats) and their motor activity was recorded for 2 hr.

rats [3] = test: Amphetamine-induced sensorimotor gating deficits (prepulse inhibition, PPI); type: in vivo; conditions: 1 mg/kg ip, amphetamine 3 mg/kg ip, 120 dB pulse, 71 dB pre-pulse, p<0.01
Protocol: Effects of compound 2 on amphetamine-induced sensorimotor gating deficits (FIG. 4 Table). Once the compound 2 dose range was determined by motor assessments, a separate group of rats were used to study PPI. Rats were treated with vehicle (75% DMSO) or DDD-016 in the DMSO vehicle; 30 min later amphetamine (3 mg/kg ip) or saline was administered, and the startle session was initiated after an additional 30 min. (The 3 mg/kg dose of amphetamine is sufficient to induced robust deficits in PPI; 1 mg/kg is subtrheshold; data not shown.) Shown are startle data from a 120 dB pulse, preceded 100 ms by a 71 dB pre-pulse.

Sequence of 5-HT2A receptor (P28223 whole entry): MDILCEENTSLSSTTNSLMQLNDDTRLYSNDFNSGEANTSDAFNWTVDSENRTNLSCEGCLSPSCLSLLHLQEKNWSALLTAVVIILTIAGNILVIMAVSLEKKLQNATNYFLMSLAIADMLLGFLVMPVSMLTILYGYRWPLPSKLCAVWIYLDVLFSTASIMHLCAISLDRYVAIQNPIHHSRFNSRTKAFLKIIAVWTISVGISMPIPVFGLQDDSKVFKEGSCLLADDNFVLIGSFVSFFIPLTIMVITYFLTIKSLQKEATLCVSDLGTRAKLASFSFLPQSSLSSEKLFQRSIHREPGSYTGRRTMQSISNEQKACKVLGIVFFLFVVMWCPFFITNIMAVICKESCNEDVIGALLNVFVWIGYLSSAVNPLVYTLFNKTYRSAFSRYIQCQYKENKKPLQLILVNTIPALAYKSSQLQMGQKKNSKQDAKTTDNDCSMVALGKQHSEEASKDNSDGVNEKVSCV

SMILES | IC50 (5-HT2A receptor) [nM] | IC50 (5-HT2C receptor) [nM] | IC50 (D2 receptor) [nM] | receptor binding activity (in words) (5-HT2A receptor; stated jointly for 5-HT2A, 5-HT2C and D2 receptors) | locomotor effect (rats [1]; 3 mg/kg, vs vehicle (75% DMSO)) | locomotor effect (rats [1]; 10 mg/kg) | catalepsy (rats [1]; 30 mg/kg ip, without a loss of right reflex) | horizontal activity, comparison of doses (rats [2]; 3 mg/kg vs 10 mg/kg, ANOVA with post hoc Newman Keuls, p<0.05) | effect on amphetamine-induced motor activity (rats [2]; 10 mg/kg, 30 min before 1 mg/kg i.p. amphetamine, activity recorded 2 hr) | effect on amphetamine-induced % PPI deficit (rats [3])
CN1CC[C@H]2[C@@H](C1)c1cccc3c1N2c1ccccc1CS3 [Compound 3] | 5 | 15 | 500 |  |  |  |  |  |  | 
CN1CC[C@@H]2[C@@H](C1)c1cccc3c1N2c1ccccc1CS3 [Compound 4] | 3 | 5 | 20 | most potent amongst all |  |  |  |  |  | 

Now from value to compound, other results behind:

IC50 (5-HT2A receptor) [nM] | IC50 (5-HT2C receptor) [nM] | IC50 (D2 receptor) [nM] | SMILES | receptor binding activity (in words) (5-HT2A receptor; stated jointly for 5-HT2A, 5-HT2C and D2 receptors) | locomotor effect (rats [1]; 3 mg/kg, vs vehicle (75% DMSO)) | locomotor effect (rats [1]; 10 mg/kg) | catalepsy (rats [1]; 30 mg/kg ip, without a loss of right reflex) | horizontal activity, comparison of doses (rats [2]; 3 mg/kg vs 10 mg/kg, ANOVA with post hoc Newman Keuls, p<0.05) | effect on amphetamine-induced motor activity (rats [2]; 10 mg/kg, 30 min before 1 mg/kg i.p. amphetamine, activity recorded 2 hr) | effect on amphetamine-induced % PPI deficit (rats [3])
8 | 50 | 500 | CN1CCc2c(c3cccc4c3n2-c2ccccc2CO4)C1 [Compound 9] |  |  |  |  |  |  | 
1 | 10 | 80 | CN1CCc2c(c3cccc4c3n2-c2ccccc2CS4)C1 [Compound 2] |  | did not differentiate from vehicle | Some locomotor reduction | robust catalepsy | difference between 3 mg/kg and 10 mg/kg | trend for 10 mg/kg of 2 to reduce the effects of amphetamine | blunted this deficit
5 | 80 | 8 | O=C(CCCN1CCc2c(c3cccc4c3n2-c2ccccc2CS4)C1)c1ccc(F)cc1 [Compound 6] |  |  |  |  |  |  | 
